Legend:
[1] = target: T1, G-protein coupled bile acid receptor 1 (Homo sapiens, UniProt Q8TDU6); assay: Agonist activity at TGR5 (unknown origin) expressed in HEK293T cells assessed as cAMP level by TR-FRET analysis; assay type: functional, cell-based
T1 sequence (Q8TDU6 whole entry): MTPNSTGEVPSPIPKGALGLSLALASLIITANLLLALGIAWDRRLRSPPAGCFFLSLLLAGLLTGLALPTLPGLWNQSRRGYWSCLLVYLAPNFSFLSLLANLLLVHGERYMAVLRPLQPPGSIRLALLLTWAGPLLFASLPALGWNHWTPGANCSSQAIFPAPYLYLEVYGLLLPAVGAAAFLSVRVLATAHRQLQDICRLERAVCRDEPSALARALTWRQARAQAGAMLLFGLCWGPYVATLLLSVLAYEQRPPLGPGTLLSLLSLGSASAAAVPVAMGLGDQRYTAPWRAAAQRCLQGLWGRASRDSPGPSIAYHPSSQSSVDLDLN

[2] = target: T1, G-protein coupled bile acid receptor 1; assay: Agonist activity at TGR5 (unknown origin) by TR-FRET assay; assay type: functional
[3] = target: T1, G-protein coupled bile acid receptor 1; assay: Agonist activity at human TGR5 expressed in HEK293 cells; assay type: functional, cell-based
[4] = target: T1, G-protein coupled bile acid receptor 1; assay: Agonist activity at human TGR5; assay type: functional

EC50 [2] [nM]	also measured	Structure (SMILES)
	EC50 [1]: 25 nM	COc1ccc(C(C)(C)c2cn(-c3ccc(F)cc3)c(SCc3c(F)cccc3Cl)n2)cc1OC
10		O=C(c1cccnc1Oc1cc(Cl)ccc1Cl)N1CCN(C2CC2)c2ccccc21
50		O=C(c1cccnc1Oc1cc(Cl)ccc1Cl)N1CCCc2cc(F)c(F)cc21
50		O=C(c1cccnc1Oc1cc(Cl)ccc1Cl)N1CCCc2ccc(F)cc21
20		O=C(c1cccnc1Oc1cc(Cl)ccc1Cl)N1CCCc2cc(F)ccc21
	EC50 [3]: 15 nM	Fc1cccc(F)c1-c1ccncc1CN1C(c2ccco2)=NOC1c1cc(C(F)(F)F)cc(C(F)(F)F)c1Cl (configuration not stated)
	EC50 [4]: 1300 nM	COc1ccc(S(=O)(=O)N2CCN(S(=O)(=O)c3ccc(OC)c(OC)c3)CC2)cc1OC
